Article PMC9821843, “Powerful Potential of Polyfluoroalkyl-Containing 4-Arylhydrazinylidenepyrazol-3-ones for Pharmaceuticals” (Molecules, 2022)
Converted amounts (≈) assume the structure as drawn. Like-named read-outs stand apart in the source and are kept apart here.

Tests used:
[1] = Oxygen radical absorbance capacity (ORAC-FL) assay; conditions: n.a. = inactive; i.t.s. = interferes with test system
Excerpt: We evaluated the primary antioxidant activity of synthesized 4-AHPs 5–9 in comparison with their non-fluorinated analogues 9a,b using three standard tests: ABTS, FRAP (ferric reducing antioxidant power) and ORAC (oxygen radical absorbance capacity) assays. The ABTS assay evaluates the binding of a model ABTS radical cation (ABTS^•+), which is realized by the mechanism of single electron transfer (SET) and/or hydrogen atom transfer (HAT). The FRAP assay measures the ability of compounds to reduce the ferric 2,4,6-tripyridyl-s-triazine complex [Fe(TPTZ)2]^3+ to [Fe(TPTZ)2]^2+, which occurs exclusively by the SET mechanism. The ORAC-FL assay measures the oxidative degradation of the fluorescent molecule (FL – fluorescein) after being mixed with a free peroxyl radical generator such as 2,2′-azobis-(2-methylpropionamidine) dihydrochloride (AAPH) in the presence of antioxidant (tested compound). The ORAC-FL test describes the antioxidants’ ability to yield the hydrogen atom and, consequently, it is a HAT-based assay. Trolox was used in all tests as a reference antioxidant: the antioxidant activity of the test compounds was referred to the activity of Trolox. The well-known antioxidant Edaravone was also used for comparison.
The ORAC assay was performed according to the known method, with minor variations and described by us recently.

[2] = molecular target: T1, human erythrocyte acetylcholinesterase (AChE, EC 3.1.1.7) (Homo sapiens, UniProt P22303); experiment: Inhibition of human erythrocyte acetylcholinesterase (Ellman assay); type: biochemical; conditions: read-out: Inhibition % at 20 µM, Human AChE
T1 construct: human erythrocyte acetylcholinesterase (AChE, EC 3.1.1.7); purchased Sigma-Aldrich (Saint Louis, MO, USA); host or cells: human erythrocytes
T1 sequence (P22303 32-617 isoform P22303-2 limits assumed): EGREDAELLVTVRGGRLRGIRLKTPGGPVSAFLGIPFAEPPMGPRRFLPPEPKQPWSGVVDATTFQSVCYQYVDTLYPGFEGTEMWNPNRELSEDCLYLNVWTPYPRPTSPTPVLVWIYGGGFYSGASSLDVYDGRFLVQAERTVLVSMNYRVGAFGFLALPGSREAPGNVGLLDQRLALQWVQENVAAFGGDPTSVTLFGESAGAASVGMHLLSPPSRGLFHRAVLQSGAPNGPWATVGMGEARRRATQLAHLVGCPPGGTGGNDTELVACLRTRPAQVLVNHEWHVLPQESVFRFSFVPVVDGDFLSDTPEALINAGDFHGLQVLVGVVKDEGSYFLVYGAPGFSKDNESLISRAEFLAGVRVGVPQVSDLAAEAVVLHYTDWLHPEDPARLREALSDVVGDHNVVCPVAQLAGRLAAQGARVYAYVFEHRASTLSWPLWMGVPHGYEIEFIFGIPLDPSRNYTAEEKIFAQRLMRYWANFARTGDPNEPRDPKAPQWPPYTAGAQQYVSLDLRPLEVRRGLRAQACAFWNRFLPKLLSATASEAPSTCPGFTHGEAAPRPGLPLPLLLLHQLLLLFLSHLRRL
Excerpt: (§1) The following enzymes were purchased from Sigma-Aldrich (Saint Louis, MO, USA): porcine liver carboxylesterase (CES, EC 3.1.1.1), human erythrocyte acetylcholinesterase (AChE, EC 3.1.1.7) and equine serum butyrylcholinesterase (BChE, EC 3.1.1.8). Substrates for CES, AChE and BChE were 4-nitrophenyl acetate (4-NPA), acetylthiocholine iodide (ATCh) and butyrylthiocholine iodide (BTCh), respectively, and the colorimetric reagent for the AChE and BChE assays was 5,5’-dithio-bis-(2-nitrobenzoic acid) (DTNB) (Sigma-Aldrich). All the kinetic experiments were performed under standard conditions, according to the protocol of IPAC RAS for a reversible inhibitors study.
Reagent blanks consisted of reaction mixtures without enzyme to assess non-enzymatic hydrolysis of substrates.
Test compounds were dissolved in DMSO. Reaction mixtures contained a final DMSO concentration of 2% (v/v). […] Measurements were performed in a Bio-Rad Benchmark Plus microplate reader. Each experiment was performed in triplicate. Plots, linear regressions and values of IC50, were determined using Origin 6.1 for Windows, OriginLab (Northampton, MA, USA).

[3] = test system: Microsporum canis RCPF F 1643/1585; experiment: Antifungal susceptibility testing, M. canis; conditions: Microsporum canis, RCPFF1643/1585, read-out: MIC for fungi strains inhibition, M. canis
Excerpt: (§4) The solvent was DMSO. […] In each test, a growth control and a sterility control were used.

[4] = test system: Trichophyton rubrum RCPF F 1408; experiment: Antifungal susceptibility testing, T. rubrum; conditions: Trichophyton rubrum, RCPFF1408, read-out: MIC for fungi strains inhibition, T. rubrum
Excerpt: as §4

[5] = molecular target: T2, equine serum butyrylcholinesterase (BChE, EC 3.1.1.8) (Equus caballus, UniProt P81908); experiment: Inhibition of equine serum butyrylcholinesterase (Ellman assay); type: biochemical; conditions: read-out: Inhibition % at 20 µM, Equine BChE
T2 construct: equine serum butyrylcholinesterase (BChE, EC 3.1.1.8); purchased Sigma-Aldrich (Saint Louis, MO, USA); host or cells: equine serum
T2 sequence (P81908 whole entry): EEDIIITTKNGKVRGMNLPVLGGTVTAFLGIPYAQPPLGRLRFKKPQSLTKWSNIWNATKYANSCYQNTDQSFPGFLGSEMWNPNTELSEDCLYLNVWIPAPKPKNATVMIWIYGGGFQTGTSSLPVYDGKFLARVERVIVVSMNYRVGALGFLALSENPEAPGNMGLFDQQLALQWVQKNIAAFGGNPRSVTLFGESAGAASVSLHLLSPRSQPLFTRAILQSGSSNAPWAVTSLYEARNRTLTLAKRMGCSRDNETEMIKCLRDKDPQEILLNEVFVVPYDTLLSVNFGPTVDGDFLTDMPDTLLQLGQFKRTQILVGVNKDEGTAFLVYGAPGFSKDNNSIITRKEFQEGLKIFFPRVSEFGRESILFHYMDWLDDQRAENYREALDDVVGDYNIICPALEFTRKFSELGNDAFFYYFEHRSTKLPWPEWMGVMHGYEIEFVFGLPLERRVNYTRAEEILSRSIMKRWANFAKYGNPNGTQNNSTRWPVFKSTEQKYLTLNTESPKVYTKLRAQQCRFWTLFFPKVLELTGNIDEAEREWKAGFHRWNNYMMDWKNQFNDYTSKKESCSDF
Excerpt: as §1
Final concentrations of reactants were 0.33 mM DTNB, 0.02 unit/mL of AChE or BChE and 1 mM of substrate (ATCh or BTCh, respectively). Reagent blanks consisted of reaction mixtures without enzyme to assess non-enzymatic hydrolysis of substrates.
(§2) Test compounds were dissolved in DMSO. Reaction mixtures contained a final DMSO concentration of 2% (v/v). […] Substrate was then added and residual enzyme activity relative to an inhibitor-free control was measured using a Bio-Rad Benchmark Plus microplate reader (Marnes-la-Coquette, France).
(§3) Measurements were performed in a Bio-Rad Benchmark Plus microplate reader. Each experiment was performed in triplicate. Plots, linear regressions and values of IC50, were determined using Origin 6.1 for Windows, OriginLab (Northampton, MA, USA).

[6] = test system: Epidermophyton floccosum RCPF F 1659/17; experiment: Antifungal susceptibility testing, E. floccosum; conditions: Epidermophyton floccosum, RCPFF1659/17, read-out: MIC for fungi strains inhibition, E. floccosum
Excerpt: as §4

Sprague-Dawley (SD) rats = experiment: Hot plate test (analgesic activity); type: in vivo; conditions: ip; for change in vivo at 15 mg/kg: Rattus norvegicus
Experimental: The hot plate test was conducted according to established guidelines on Sprague-Dawley (SD) rats (3 male and 3 female rodents per group). The compounds were intraperitoneally administered in the form of suspensions in 1% starch mucilage. Negative control group animals received vehicle only (1% starch mucilage). Diclofenac sodium (Hemofarm, Vršac, Serbia, 10 mg/kg in 1% starch mucilage solution) or metamizole sodium (PAO Biosynthesis, Sun Pharma, Penza, Russia, 15 mg/kg in 1% starch mucilage solution) were used as reference drugs. One and two hours after the injection, rats were placed on an electrically heated to 50 °C plate (Hot plate 60,200 series, TSE-systems, Bad Homburg, Germany) in a Plexiglas cylindrical restrainer (19 cm diameter × 30 cm). The nociceptive response time was measured by observing the appearance of rats’ movements (e.g., jumping, hind paw licking or shaking). Maximal cutoff time was set as 30 s regardless of the response in order to preclude skin damage.
Differences between the values of the latency period for the treated (experimental) and control groups of animals were considered significant at p ≤ 0.05.

[7] = test system: Neisseria gonorrhoeae ATCC 49226/NCTC 12700; experiment: Antibacterial activity against Neisseria gonorrhoeae; type: cell-based; conditions: read-out: MIC against Neisseria gonorrhoeae
Experimental: Antibacterial activity testing was done on the growth medium Difco GC medium base (Becton Dickinson, Franklin Lakes, NJ, USA) supplemented with 1% IsoVitaleX. Dilutions of chemical compounds were carried out in the range of 250–0.12 μg/mL in 24 well sterile plates (Sarstedt, Germany). Daily cultures of control bacterial strains were identified on a VITEK MS analyzer (BioMérieux, Marcy-l’Étoile, France) by MALDI-TOF mass spectrometry. The inoculation dose of N. gonorrhoeae inoculum was 10^5 CFU/mL.

[8] = Acute toxicity evaluation in mice (ip); conditions: CD-1, mouse, in vivo, 300 mg/kg
Experimental: The toxicity evaluation was performed on CD-1 mice. […] The tested compounds in 1% starch mucilage were injected intraperitoneally into three mice. Then, animals were observed during 14 days, the number of deaths was counted and % of viability calculated.

[9] = molecular target: porcine liver carboxylesterase (CES, EC 3.1.1.1) (Sus scrofa, UniProt Q29550); experiment: Inhibition of porcine liver carboxylesterase (4-NPA colorimetric assay); type: biochemical; conditions: mean ± SEM, n = 3; for inhibition at 20 µM: n.a. = inactive at 20 µM
Sequence of porcine liver carboxylesterase (CES, EC 3.1.1.1) (Q29550 19-566): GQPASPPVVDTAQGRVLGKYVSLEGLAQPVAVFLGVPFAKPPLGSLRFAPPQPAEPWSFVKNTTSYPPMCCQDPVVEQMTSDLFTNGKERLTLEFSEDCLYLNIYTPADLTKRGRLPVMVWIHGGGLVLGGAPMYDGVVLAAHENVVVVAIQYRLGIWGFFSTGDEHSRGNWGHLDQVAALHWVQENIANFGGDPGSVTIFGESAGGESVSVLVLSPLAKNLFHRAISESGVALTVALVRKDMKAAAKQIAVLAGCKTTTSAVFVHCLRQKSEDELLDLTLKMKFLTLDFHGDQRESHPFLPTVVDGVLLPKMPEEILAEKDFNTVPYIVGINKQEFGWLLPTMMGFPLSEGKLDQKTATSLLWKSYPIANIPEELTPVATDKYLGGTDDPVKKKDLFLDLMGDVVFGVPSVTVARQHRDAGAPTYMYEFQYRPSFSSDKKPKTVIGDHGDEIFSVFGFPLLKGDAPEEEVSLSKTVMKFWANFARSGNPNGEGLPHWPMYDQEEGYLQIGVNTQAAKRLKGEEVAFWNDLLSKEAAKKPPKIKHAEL
Excerpt: as §1
The CES (porcine liver) activity was assessed colorimetrically in 0.1 M K/Na phosphate buffer pH 8.0, 25 °C, by measuring the absorbance of 4-nitrophenol at 405 nm. Final enzyme and substrate (4-NPA) concentrations were 0.02 unit/mL and 1 mM, respectively. Reagent blanks included all constituents except enzyme.
as §2, with “(v/v). Enzyme inhibition was first assessed at a single concentration of 20 µM for each compound after a 5 min incubation at 25 °C in three separate experiments.” for “(v/v).”
as §3, with “USA). Results were calculated using GraphPad Prism version 6.05 for Windows, GraphPad Software (La Jolla, CA, USA) and presented as mean ± SEM.” for “USA).”

[10] = test system: Candida albicans RCPF Y 401/NCTC 885/653; experiment: Antifungal susceptibility testing, C. albicans; conditions: NCTC885, read-out: MIC for fungi strains inhibition, C. albicans
Excerpt: as §4

[11] = ABTS radical cation scavenging activity assay; conditions: mean ± SEM
Experimental: Radical scavenging activity of the compounds was evaluated by the ABTS radical cation (ABTS^•+) scavenging assay by the ability of the compounds to decolorize the ABTS^•+ solution [112] with some modifications. Trolox was used as a reference standard. Edaravone was used as the comparison compound. All tested compounds and standards were dissolved in DMSO. ABTS (2,2′-azinobis-(3-ethylbenzothiazoline-6-sulfonic acid)) was purchased from Tokyo Chemical Industry Co. Ltd. (Tokyo, Japan). Potassium persulfate (di-potassium peroxdisulfate), Trolox® (6-hydroxy-2,5,7,8-tetramethychroman-2-carboxylic acid), ascorbic acid, DMSO and HPLC-grade ethanol were obtained from Sigma-Aldrich Chemical Co. Aqueous solutions were prepared using deionized water.
The solution of ABTS^•+ was produced by mixing 7 mM ABTS aqueous solution with 2.45 mM potassium persulfate aqueous solution in equal quantities and allowing them to react for 12–16 h at room temperature in the dark. Radical scavenging capacity of the compounds was analyzed by mixing 10 μL of compound with 240 μL of ABTS^•+ working solution in ethanol (100 μM final concentration), and after 1 h of incubation at 30 °C the decrease in absorbance was measured spectrophotometrically at 734 nm using a Bio-Rad xMark microplate UV/VIS spectrophotometer (Bio-Rad, Hercules, CA, USA). The compounds were tested in the concentration range of 5 × 10^–7–4 × 10^–4 M. Ethanol blanks were run in each assay. Values were obtained from five replicates of each sample and three independent experiments.
Antioxidant activity was calculated as Trolox equivalent antioxidant capacity (TEAC values), consisting of the ratio between the slopes obtained from the linear correlation for concentrations of the tested compounds and Trolox with absorbance of ABTS radical. For the test compounds, which reduce ABTS^•+ absorbance by more than 60% at 100 µM, we also determined IC50 values as 50% reduction of the ABTS radical. The calculations were carried out using Origin 6.1 for Windows. Results were presented as mean ± SEM, calculated using GraphPad Prism version 6.05 for Windows, GraphPad Software.

[12] = hot plate test, rats, dose 15 mg/kg, 1 h, n.a. = inactive (p > 0.05), read-out: Latent Period Prolongation, % 1 h
[13] = hot plate test, rats, dose 15 mg/kg, 2 h, n.a. = inactive (p > 0.05), read-out: Latent Period Prolongation, % 2 h

Compound | ORAC-FL (TE, antioxidant activity in Trolox equivalents) [1] | inhibition at 20 µM [2] [%] | MIC [3] [µg/mL] | MIC [4] [µg/mL] | inhibition at 20 µM [5] [%] | MIC [6] [µg/mL] | change in vivo at 15 mg/kg (Sprague-Dawley (SD) rats; [12]) [%] | change in vivo at 15 mg/kg (Sprague-Dawley (SD) rats; [13]) [%] | MIC [7] [µg/mL] | survival at 14 days [8] [%] | inhibition at 20 µM [9] [%] | MIC [10] [µg/mL] | analgesic activity in the hot plate test (Sprague-Dawley (SD) rats; SD rats, dose 15 mg/kg, 1 and 2 h) | IC50 [11] [µM] | ABTS•+-scavenging activity, TEAC (trolox equivalent antioxidant capacity) ([11]; n.a. = inactive) | change in vivo at 15 mg/kg (Sprague-Dawley (SD) rats; 1 h, read-out: Latent Period Prolongation, % 1 h) [%] | change in vivo at 15 mg/kg (Sprague-Dawley (SD) rats; 2 h, read-out: Latent Period Prolongation, % 2 h) [%] | IC50 ([9]; read-out: Inhibitory Activity IC50 ± SEM, Porcine CES) [µM]
O=C1/C(=N\Nc2ccccc2Cl)C(C(F)(F)F)=NN1c1ccccc1 [5i, (4Z)-4-[2-(2-Chlorophenyl)hydrazinylidene]-2-phenyl-5-(trifluoromethyl)-2,4-dihydro-3H-pyrazol-3-one] | i.t.s. | 6.3 ± 1 | > 200 | > 200 | 6.4 ± 1.3 | > 200 | 42 | 61 | > 250 | 100 | 23.2 ± 1.8 | > 200 | – | – | – | – | – | –
O=C1/C(=N\Nc2ccc(S(=O)(=O)O)cc2)C(C(F)(F)F)=NN1c1ccccc1 [5o, (4Z)-4-(2-[4-(Sulfo)phenyl]hydrazinylidene)-2-phenyl-5-(trifluoromethyl)-2,4-dihydro-3H-pyrazol-3-one] | i.t.s. | – | – | – | 7.4 ± 1.2 | – | 109 | 54 | 62.5 (≈ 152 µM) | 100 | 5.2 ± 1 | – | – | – | – | – | – | –
O=C1/C(=N\Nc2ccc(Cl)cc2Cl)C(C(F)(F)C(F)(F)F)=NN1c1ccccc1 [6f, (4Z)-4-[2-(2,4-Dichlorophenyl)hydrazinylidene]-5-(pentafluoroethyl)-2-phenyl-2,4-dihydro-3H-pyrazol-3-one] | – | 3.4 ± 0.7 | > 200 | > 200 | 4.3 ± 0.8 | 200 (≈ 443 µM) | – | – | > 250 | 100 | 6.6 ± 0.9 | > 200 | inactive | – | – | – | – | –
Cc1ccc(N/N=C2\C(=O)N(c3ccccc3)N=C2C(F)(F)C(F)(F)C(F)(F)C(F)(F)F)cc1 [8b, (4Z)-5-(Nonafluorobutyl)-4-[2-(4-methylphenyl)hydrazinylidene]-2-phenyl-2,4-dihydro-3H-pyrazol-3-one] | – | 9 ± 1.4 | – | – | – | – | – | – | > 250 | 100 | 12.1 ± 1.9 | – | – | > 400 | 0.05 ± 0.03 | 95.2 | 125 | –
O=[N+]([O-])c1ccc(OP(=O)(O)Oc2ccc([N+](=O)[O-])cc2)cc1 [BNPP, reference compound] | – | – | – | – | – | – | – | – | – | – | – | – | – | – | – | – | – | 1.8 ± 0.11
